From a melting point compilation (Tetko et al.; mined from patent text by program, amines drawn as free bases though some values may be those of a salt)

| SMILES | melting point |
| --- | --- |
| Cc1c(/C=C/C(=O)c2cccc3ccccc23)ncn1C(c1ccccc1)(c1ccccc1)c1ccccc1 | 184 to 186 °C |
| Clc1ccc2ncn3cnnc3c2c1 | 179 to 182 °C |
| O=C(O)CCc1cn(Cc2ccc(OCc3ccc(-c4ccccc4)cn3)cc2)cc1-c1ccccc1 | 169 to 170 °C |
| Cn1cnc([N+](=O)[O-])c1Sc1nc(N)nc2c1ncn2C1C=CC(CO)C1 (centres undefined) | 207 to 208 °C |
| CC(C)OC(=O)c1cn(-c2cccnc2)cn1 | 130 to 131 °C |
| CSc1cc(C(C)(C)C)nn1C(=O)Cl | 64 to 66 °C |
| COc1cc(N)ccc1-c1ccc(-c2ccc(N)cc2OC)o1 | 201 to 202 °C |
| NC(=O)c1cc([N+](=O)[O-])cc(Br)n1 | 179 to 180 °C |
| COC(=O)NCC(C)OS(C)(=O)=O (centres undefined) | 37 to 40 °C |
| COc1c(Cl)cc(Br)cc1Cl | 67 to 68 °C |
| COc1cc(Cl)ccc1CCl | 43 to 45 °C |
| COc1ccc(CC[N+](=O)[O-])cc1OC | 50 to 52 °C |
| O=C1NC(=O)C(=Cc2ccccc2)C(=O)N1 | > 258 °C |
| Cc1ccc(C(=O)CBr)o1 | 60 to 63 °C |
| CCC[C@H]1CC[C@H](c2ccc(CCC(F)F)cc2)CC1 | 12 °C |
| C[C@@H](N(CCOCc1ccccc1)C(=O)c1ccc(OCC(F)(F)C(F)F)cc1)[C@](O)(Cn1cncn1)c1ccc(Cl)cc1Cl (relative stereo) | 51 to 62 °C |
| Fc1ccc(-c2cc(N3CCN(C4CC4)CC3)nc3c2CCCCCC3)cc1 | 125 to 128 °C |
| CC12CCC1C(=O)OC2=O (centres undefined) | 59 to 60 °C |
| C1=Cc2ccccc2NN=C1 | 183 to 184 °C |
| COc1cc(Nc2c(C#N)cnc3cc(-c4ccc(CN5CCN(C)CC5)cc4)sc23)c(Cl)cc1Cl | 226 to 228 °C |
| CC(C)[C@H](NC(=O)CS)C(=O)N1CCC[C@H]1C(=O)O | 162 to 165 °C |

| SMILES | melting point |
| --- | --- |
| CCCCCCCCON=C(C(=O)OCC)c1csc(N)n1 | 77 to 78 °C |
| Brc1ccc2c3c(cccc13)C(NCCCCn1ccnc1)=N2 | 145 to 147 °C |
| Cc1cc(CCCCOCCCCCCNCc2c(CO)ccc(O)c2CO)cc(C)c1N | 66 to 68 °C |
| Cc1csc(C2=CCN(CCCC(=O)c3ccc(F)cc3)CC2)n1 | 81 to 82 °C |
| CCOC(=O)COc1cc(C)sc1C#N | 58 °C |
| CN(C1=CC(=O)C(=O)c2ccccc21)C1CCCCC1 | 168 to 170 °C |
| O=C1CC=C(c2ccc(Cl)cc2)CC1 | 59 to 62 °C |
| CCc1cc(O)n2ncnc2n1 | 212 °C |
| O=S(=O)(Nc1cccc(OCc2ncc3ccccc3n2)c1)C(F)(F)F | 140 to 150 °C |
| CCCCCOc1ccccc1C1=NNC(=O)CC1 | 50 to 52 °C |
| Cc1ccc([C@@H]2c3c(C)c(NC(=O)Cc4ccc(C(F)(F)F)cc4)c(C)c(C)c3OC2(C)C)cc1 | 187 to 189 °C |
| CCOC(=O)c1c(C(C)C)csc1N/C=C(\C#N)C(=O)OC(C)(C)C | 93 to 94 °C |
| CN(c1ccc(O)cc1)c1nc2cc(Cl)ccc2s1 | 238 to 240 °C |
| Cc1cc(-c2ccc(C(F)(F)F)cc2)nc(-c2cccc(-c3ccc(S(N)(=O)=O)s3)c2)c1 | 211 °C |
| CCNc1nc(N)nc(-c2ccccc2)c1-c1ccc(=O)n(C(C)C)n1 | 208 to 209 °C |
| COc1cc(CN)nc(SC)n1 | 35 to 38 °C |
| Nc1c([N+](=O)[O-])sc2cccc(Cl)c12 | 174 to 175 °C |
| COc1cc(-c2ccccc2F)nc(-c2cccc(C)n2)n1 | 99.5 °C |
| CCCCCCN(CCCC(=O)Nc1c(SC)nc(C)nc1N(CC)CC)c1ccc(Br)cc1 | 89.8 to 93 °C |
| COc1cc2cnnc(N3CCC(=O)CC3)c2cc1OC | 180 to 181 °C |
| Cc1cc(N)cnc1Oc1cccc(C(C)(C)C)c1 | 83 to 84 °C |

| SMILES | melting point |
| --- | --- |
| CCCC[C@H](NC(=O)[C@H](Cc1ccccc1)NC(=O)OCc1ccccc1)C(=O)CSCc1ccco1 | 123 to 124 °C |
| Fc1ccc(Nc2ncnc(NN=Cc3ccc(OC(F)(F)F)cc3)n2)cc1C(F)(F)F | 185 to 186 °C |
| CCCc1c(OC(C(=O)OCC)c2ccc(OC)cc2)ccc(C(C)=O)c1O (centres undefined) | 87 to 89 °C |
| O=C(CCCCCCCCCCCCC(=O)ON1C(=O)CCC1=O)OCc1ccccc1 | 61.5 to 62.5 °C |
| Cn1c(C(=O)OC(C)(C)C)c(Br)c2cc(OCc3ccccc3)ccc21 | 97 to 99 °C |
| Sc1c(Cl)cc(Cl)c(Cl)c1S | 115 to 116 °C |
| O=C(O)[C@H](CCc1ccccc1)Oc1ccc(-c2ccco2)cc1 | 140 to 142 °C |
| CC(C)(C)c1cc(Nc2ccc(CCC(=O)O)cc2)cc(C(C)(C)C)c1O | 140 to 142 °C |
| Fc1ccc(-c2cc3c(cc2Br)OCO3)cc1 | 86 to 87.5 °C |
| CCCC(C)c1nn(-c2ccc(C(F)(F)F)cn2)cc1CCCO (centres undefined) | 72 to 73 °C |
| CCOC(=O)N1CCc2nc3c(O)c(Br)cc(Br)c3c(C)c2CC1 | 179 °C |
| O=C1CCC(c2ccc(Br)cc2)N1 (centres undefined) | 142 °C |
| COc1c(OC)c(-c2ccccc2)n(-c2ccc(C)cc2)c1-c1ccccc1 | 192 to 193 °C |
| C=CCN(c1ccccc1CC(=O)N(C)C)c1c(Cl)cccc1Cl | 110 to 114 °C |
| CCCCCCSc1nn2c(=O)c(Cl)c(F)nc2s1 | 105 to 111 °C |
| O=C(NOC(=O)C(F)(F)F)C(F)(F)F | 40 to 50 °C |
| COC(=O)c1nc(C)[nH]c1C(=O)OC | 138 to 140 °C |
| CC(C)(S)C(NC(=O)c1ccc(Cl)cc1)C(=O)O (centres undefined) | 174 °C |
| COc1ccc(S(=O)(=O)Nc2ccccc2Nc2ncccn2)cc1 | 193 to 195 °C |
| O=C(NCCN1CCCC1)c1cccc(-c2cccc(OCCc3ccc(Cl)cc3Cl)n2)c1 | 115 to 116 °C |
| N#CC(CF)(CF)CF | 70 to 75 °C |

Next, values leading:

| melting point | SMILES |
| --- | --- |
| 231 to 232 °C | Cc1cccc(NS(=O)(=O)c2ccc(N3CCNC3=O)cc2)c1C |
| 229 to 231 °C | COC(=O)C1=C(C)NC2=C(C(=O)OC2)C1c1cccc(Br)c1 (centres undefined) |
| 156 °C | CSC1=Nc2ccc(C(=O)c3cccnc3)cc2CN1 |
| 178 to 182 °C | COC(=O)c1ccc2cccc(C#N)c2c1 |
| 136 to 138 °C | CCCc1nc2cc([N+](=O)[O-])ccc2n1Cc1ccc(C(=O)OCC)cc1 |
| 194 to 197 °C | Cc1ccc2[nH]c3c(c2c1)C(C(=O)O)CCC3 (centres undefined) |
| 132 to 136 °C | CSCn1cc(F)c(N=CN(C)C)nc1=O |
| 130 to 131 °C | COc1cc([N+](=O)[O-])ccc1NC(=O)OCc1ccccc1 |
| 81 to 83 °C | O=C1CCC(C2CO2)N1Cc1ccccc1Cl (centres undefined) |
| 57 to 59 °C | CCCOC(=O)Nc1ccc(OCC2CC2(Cl)Cl)c(Cl)c1 (centres undefined) |
| 142 to 143 °C | O=C1C=C(C(F)(F)F)N(Br)CN1c1ccc(C(F)(F)F)cn1 |
| 184 to 186 °C | CCOC(=O)c1cc2c(=O)n(CC)c3ccccc3n2c1 |
| > 260 °C | CC(C)(C)c1cc(N2CCN(C(=O)c3ccc([N+](=O)[O-])cc3)C2=O)cc(C(C)(C)C)c1O |
| 99 to 102 °C | O=C(O)Cc1cccc(Oc2cccc(Cl)c2)c1O |
| 176 to 177 °C | CN1C(O)=C(C(=O)NCc2ccccc2)c2ccsc2S1(=O)=O |
| 228 to 230 °C | CC(=O)N1c2ccccc2NC(=O)c2cscc21 |
| 100 °C | COC(C)=C(Cl)C(=O)Nc1ccccc1 |
| 227 to 231 °C | CNC(=O)c1ccc(N2CCN(Cc3cc(Cc4ccccc4)c4c(c3)NC(=O)C(C)O4)CC2)cc1 (centres undefined) |
| 108 to 111 °C | COC(=O)C1Cc2c([nH]c3ccccc23)C(c2cc(OC)ccc2OC)N1C(=O)CCl (centres undefined) |
| 99 to 100 °C | Cc1oc(-c2ccccc2)nc1CCOc1ccc(C=O)cn1 |
| 55 to 57 °C | O=C1CCSc2cc(Br)ccc21 |
| 59.5 to 60.5 °C | CCc1cc(=O)c2cc(C(C)CO)ccc2o1 (centres undefined) |
| 238 °C | CCCOc1ccc(F)cc1C1=NC(=O)C2=NC=NC2=N1 |

| melting point | SMILES |
| --- | --- |
| 119 to 121 °C | O=S(=O)(NCC1CCN(C[C@H]2COc3ccc(Cl)cc3O2)CC1)c1ccc(F)cc1F |
| 150 °C | Cc1ccc2[nH]c(=O)n(CCCN3CCC(C(=O)c4ccc(F)cc4)CC3)c2c1 |
| 74 to 75 °C | N#CC(c1cccc(F)c1)N1CCOCC1 (centres undefined) |
| 119 to 120 °C | O=Cc1cccn1-c1ccc(C(F)(F)F)cc1Cl |
| 188 to 190 °C | CC(=O)Nc1nc(-c2cccc3ccccc23)co1 |
| 285 to 287 °C | Nc1c2c(nc3cc(Cl)ccc13)CCCC2=O |
| 174 to 175 °C | CCCN(CCC)CCCC1CCN(CCNC(=O)N2c3cc(Cl)ccc3C(=O)Nc3cccnc32)CC1 |
| 144 to 145 °C | COC(=O)COc1cc(N(C(=O)CCl)C(=O)C2=C(C(=O)OC)CCCC2)c(F)cc1Cl |
| 221 to 222 °C | O=C(O)C1=Cc2cc(Br)cc(Cl)c2OC1C(F)(F)F (centres undefined) |
| 77 to 78 °C | COc1ccc(CC(C)(C)NC(=O)N(C)O)cc1OC |
| 111 to 112 °C | CC(C)(C)OC(=O)N1CC=C(c2ccc(N)c([N+](=O)[O-])c2)CC1 |
| 150 to 153 °C | Cc1cc(O)c(S(=O)Cc2ccccc2)c(=O)o1 (centres undefined) |
| 85 to 88 °C | COC(=O)c1ccc2c(c1)Sc1ccc(F)cc1C(O)=C2 |
| 90 to 92 °C | COc1c(Nc2ncc(Cl)c(Nc3ccccc3S(=O)(=O)N3CCC(O)C3)n2)ccc2c1CCCC(NCCO)C2 (centres undefined) |
| 196 to 198 °C | CC(=O)NCC1CN(c2ccc(NC=O)c(F)c2)C(=O)O1 (centres undefined) |
| 131 to 132 °C | O=C1NC(=O)N(CCCc2ccccc2)C1O (centres undefined) |
| 105 to 107 °C | COC(=O)C(C)c1ccc2c(c1)Cc1cc([N+](=O)[O-])ccc1-2 (centres undefined) |
| 128 °C | CC1(C)Oc2ccc(C#N)cc2[C@@H](O)[C@@H]1Br (relative stereo) |
| 59 to 61 °C | CCOC(=O)c1nc(C2CC2)nc(NCc2ccccc2)c1Cl |
| 213 to 215 °C | Cc1cc(C(=O)NCc2cccc3c2C(=O)N(C2CCC(=O)NC2=O)C3=O)nn1C (centres undefined) |
| 59 to 61 °C | CCCOc1cc([N+](=O)[O-])ccc1N |
| 32 to 39 °C | Cc1nn(C)c(NCC(C)(C)C)c1NCc1ccc(F)cc1 |
| 153 to 154 °C | CCOC(=O)CNc1ncccc1NC(=O)c1ccc(Br)cc1 |
